Earlier results as cited in patent publication US20210145844A1, “COMBINATION THERAPY FOR NICOTINE ADDICTION” (Amygdala Neurosciences, Inc., priority 2018, published 2021).

Columns and labels:
hMAO-A = molecular target: T1, hMAO-A (Homo sapiens, UniProt P21397); conditions: read-out: IC50 hMAO-A
T1 sequence (P21397 1-527): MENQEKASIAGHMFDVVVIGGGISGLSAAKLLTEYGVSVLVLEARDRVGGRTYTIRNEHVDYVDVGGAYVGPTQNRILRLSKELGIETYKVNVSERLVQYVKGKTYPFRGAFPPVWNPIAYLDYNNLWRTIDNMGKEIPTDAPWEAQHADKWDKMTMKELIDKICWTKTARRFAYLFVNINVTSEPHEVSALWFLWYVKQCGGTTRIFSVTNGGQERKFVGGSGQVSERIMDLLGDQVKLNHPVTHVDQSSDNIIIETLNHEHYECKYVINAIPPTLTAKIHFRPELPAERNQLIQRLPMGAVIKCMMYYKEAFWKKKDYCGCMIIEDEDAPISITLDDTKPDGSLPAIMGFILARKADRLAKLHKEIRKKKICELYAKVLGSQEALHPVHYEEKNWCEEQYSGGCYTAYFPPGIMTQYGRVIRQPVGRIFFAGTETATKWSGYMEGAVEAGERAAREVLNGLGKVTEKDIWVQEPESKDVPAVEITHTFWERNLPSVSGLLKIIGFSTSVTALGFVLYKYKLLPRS

hMAO-B = molecular target: T2, hMAO-B (Homo sapiens, UniProt P27338); conditions: read-out: IC50 hMAO-B
T2 sequence (P27338 1-520): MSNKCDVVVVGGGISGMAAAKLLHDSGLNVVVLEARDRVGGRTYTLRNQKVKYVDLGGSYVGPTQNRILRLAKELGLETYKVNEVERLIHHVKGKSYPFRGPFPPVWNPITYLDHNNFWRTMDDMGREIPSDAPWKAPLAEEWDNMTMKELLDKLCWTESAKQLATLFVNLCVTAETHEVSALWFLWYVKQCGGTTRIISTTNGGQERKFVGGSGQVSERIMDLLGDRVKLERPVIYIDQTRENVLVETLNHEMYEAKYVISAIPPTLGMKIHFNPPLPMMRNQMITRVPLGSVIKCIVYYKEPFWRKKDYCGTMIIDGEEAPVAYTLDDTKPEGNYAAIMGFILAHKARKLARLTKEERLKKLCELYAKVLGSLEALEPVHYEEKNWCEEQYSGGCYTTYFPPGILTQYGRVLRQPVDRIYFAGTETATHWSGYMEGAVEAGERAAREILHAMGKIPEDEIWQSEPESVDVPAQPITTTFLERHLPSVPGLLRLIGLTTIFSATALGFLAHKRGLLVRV

[1] = in vivo
human ALDH-2 enzyme = molecular target: T3, human ALDH-2 enzyme (Homo sapiens, UniProt P05091); conditions: read-out: IC50 ALDH-2
T3 sequence (P05091 18-517): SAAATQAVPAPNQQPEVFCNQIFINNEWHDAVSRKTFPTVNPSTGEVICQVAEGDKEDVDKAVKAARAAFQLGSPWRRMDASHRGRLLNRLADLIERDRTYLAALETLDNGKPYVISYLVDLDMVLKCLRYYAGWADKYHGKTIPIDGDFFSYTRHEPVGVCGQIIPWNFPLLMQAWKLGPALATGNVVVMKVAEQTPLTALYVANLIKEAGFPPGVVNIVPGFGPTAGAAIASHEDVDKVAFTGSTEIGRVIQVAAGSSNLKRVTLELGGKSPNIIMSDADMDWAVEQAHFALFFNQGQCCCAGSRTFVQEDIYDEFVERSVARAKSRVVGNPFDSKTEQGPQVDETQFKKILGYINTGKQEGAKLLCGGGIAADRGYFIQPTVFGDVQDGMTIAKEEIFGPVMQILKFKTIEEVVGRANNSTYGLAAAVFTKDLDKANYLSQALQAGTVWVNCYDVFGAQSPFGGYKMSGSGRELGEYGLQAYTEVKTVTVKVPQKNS

With O=C(NCc1ccc(-c2cc[nH]c(=O)c2)cc1)c1c(F)ccc(F)c1Cl [(8), 2-chloro-3,6-difluoro-N-(4-(2-oxo-1,2-dihydropyridin-4-yl)benzyl)benzamide] as the compound, how does the IC50 (hMAO-A) read?
The IC50 was > 130 µM.

And the IC50 (hMAO-B)?
The IC50 was > 130 µM.

Which “varenicline discontinuation due to gastrointestinal side-effects” value (patients; estimated) does the source give for O=C(O)C(O)C(O)C(=O)O.c1cnc2cc3c(cc2n1)[C@@H]1CNC[C@H]3C1 [varenicline, 7,8,9,10-tetrahydro-6,10-methano-6H-pyrazino[2,3-h][3]benzazepine] here?
Its value is 2%-8%.

What about the “incidence of nausea at larger doses” value (patients; larger doses, placebo 10%) of the same compound?
The value was 30%.

What about the “mild nausea, share of patients” value (patients; most common side effect, smoking cessation use) of the same compound?
Its value is ~30 % of patients.

And the “incidence of nausea at smaller doses” value (patients; smaller doses, placebo 11%)?
The value was 16%.

What does the source list for Cc1cccc(C)c1C(=O)NCc1ccc(-c2cc[nH]c(=O)c2)cc1 [(6), 2,6-dimethyl-N-(4-(2-oxo-1,2-dihydropyridin-4-yl)benzyl)benzamide]?
IC50 (hMAO-A): > 130 µM; IC50 (hMAO-B): > 130 µM

Which IC50 (hMAO-A) does the source give for Cc1cc(-c2ccc(CNC(=O)c3c(Cl)cccc3Cl)cc2)cc(=O)[nH]1 [(7), 2,6-dichloro-N-[4-(6-methyl-2-oxo-1,2-dihydro-pyridin-4-yl)-benzyl]-benzamide] here?
The IC50 was > 130 µM.

And the IC50 (hMAO-B)?
The IC50 was > 130 µM.

For O=C(NCc1ccc(-c2cc[nH]c(=O)c2)cc1)c1c(Cl)cccc1Cl [Compound (1), 2,6-dichloro-N-[4-(2-oxo-1,2-dihydro-pyridin-4-yl)-benzyl]-benzamide], which IC50 (hMAO-A) is on record?
Its IC50 is > 130 µM.

What about the IC50 (hMAO-B) of the same compound?
Its IC50 is > 130 µM.

What about the self-administration of nicotine (rats) of the same compound?
The self-administration of nicotine was “suppress self-administration of nicotine in rats”.

What about the “intake of cocaine and alcohol” value [1] of the same compound?
The value was “reduce intake of cocaine and alcohol”.

For O=C(NCc1ccc(-c2cc[nH]c(=O)c2)cc1)c1cccc(F)c1Cl [(4), 2-chloro-3-fluoro-N-(4-(2-oxo-1,2-dihydropyridin-4-yl)benzyl)benzamide], which IC50 (hMAO-A) is on record?
The IC50 was > 130 µM.

What about the IC50 (hMAO-B) of the same compound?
The IC50 was > 130 µM.

Which IC50 (human ALDH-2 enzyme) does the source give for O=C(NCc1ccc(-c2ccn(COP(=O)(O)O)c(=O)c2)cc1)c1c(Cl)cccc1Cl [Compound (2), phosphoric acid mono-(4-{4-[(2,6-dichloro-benzoylamino)-methyl]-phenyl}-2-oxo-2H-pyridin-1-ylmethyl) ester] here?
Its IC50 is > 10 µM.

And the IC50 (hMAO-A)?
The IC50 was > 130 µM.

What about the IC50 (hMAO-B) of the same compound?
Its IC50 is > 130 µM.

What about the “in vivo metabolism of prodrug” value of the same compound?
Its value is “undergoes in vivo cleavage of the phosphoric acid group to yield compound (1)”.

With Cc1cccc(Cl)c1C(=O)NCc1ccc(-c2cc[nH]c(=O)c2)cc1 [(5), 2-chloro-6-methyl-N-(4-(2-oxo-1,2-dihydropyridin-4-yl)benzyl)benzamide] as the compound, how does the IC50 (hMAO-A) read?
The IC50 was > 130 µM.

And the IC50 (hMAO-B)?
The IC50 was > 130 µM.

For Cc1cc(CNC(=O)c2c(Cl)cccc2Cl)ccc1-c1cc[nH]c(=O)c1 [(9), 2,6-dichloro-N-(3-methyl-4-(2-oxo-1,2-dihydropyridin-4-yl)benzyl)benzamide], which IC50 (hMAO-A) is on record?
The IC50 was > 130 µM.

And the IC50 (hMAO-B)?
Its IC50 is > 130 µM.

With COCCOc1cc(Cl)c(C(=O)NCc2ccc(-c3cc[nH]c(=O)c3)cc2)c(Cl)c1 [(3), 2,6-dichloro-4-(2-methoxyethoxy)-N-(4-(2-oxo-1,2-dihydropyridin-4-yl)benzyl)benzamide] as the compound, how does the IC50 (hMAO-A) read?
The IC50 was > 130 µM.

And the IC50 (hMAO-B)?
The IC50 was > 130 µM.

For Cn1ccc(-c2ccc(CNC(=O)c3c(Cl)cccc3Cl)cc2)cc1=O [(10), 2,6-dichloro-N-(4-(1-methyl-2-oxo-1,2-dihydropyridin-4-yl)benzyl)benzamide], which IC50 (hMAO-A) is on record?
Its IC50 is > 130 µM.

And the IC50 (hMAO-B)?
The IC50 was > 130 µM.

Which results are given for O=C(NCc1ccc(-c2cc[nH]c(=O)c2)cc1F)c1c(Cl)cccc1Cl [(13), 2,6-dichloro-N-(2-fluoro-4-(2-oxo-1,2-dihydropyridin-4-yl)benzyl)benzamide]?
IC50 (hMAO-A): > 130 µM; IC50 (hMAO-B): > 130 µM

For O=C(NCc1ccc(-c2cc[nH]c(=O)c2)cc1)c1c(F)cccc1F [(11), 2,6-difluoro-N-(4-(2-oxo-1,2-dihydropyridin-4-yl)benzyl)benzamide], which IC50 (hMAO-A) is on record?
The IC50 was > 130 µM.

And the IC50 (hMAO-B)?
Its IC50 is > 130 µM.

Which results are given for O=C(NCc1ccc(-c2cc[nH]c(=O)c2)cc1)c1c(F)cccc1Cl [(12), 2-chloro-6-fluoro-N-(4-(2-oxo-1,2-dihydropyridin-4-yl)benzyl)benzamide]?
IC50 (hMAO-A): > 130 µM; IC50 (hMAO-B): > 130 µM

For O=C(NCc1ccc(-c2cc(=O)[nH]cc2F)cc1)c1c(Cl)cccc1Cl [(14), 2,6-dichloro-N-(4-(5-fluoro-2-oxo-1,2-dihydropyridin-4-yl)benzyl)benzamide], which IC50 (hMAO-A) is on record?
The IC50 was > 130 µM.

What about the IC50 (hMAO-B) of the same compound?
Its IC50 is > 130 µM.
